According to ChEMBL document CHEMBL6074641, “Polypharmacological Drug Design Guided by Integrating Phenotypic and Restricted Fragment Docking Strategies” (J Med Chem, 2024):
Active and inactive are the calls of the source. The calls are words filed in the database; no cut-off is given here.

Key:
[1] = system: Mus musculus; assay: Anti-alzheimer activity against 5 month old APP/PS1 transgenic mouse model assessed as improved cognitive ability at 10 mg/kg, po administered 4 times per week for 4 weeks; type: functional, organism-based
[2] = Cmax in C57BL/6 mouse brain at 10 mg/kg, po measured upto 24 hrs by LC-MS/MS analysis; type: ADME, organism-based
[3] = system: Mus musculus; assay: Anti-alzheimer activity against 8 month old 3xTg mouse model assessed as improved spatial preference towards annulus at 10 mg/kg, po administered 4 times per week for 4 weeks; type: functional, organism-based
[4] = system: Mus musculus; assay: Anti-alzheimer activity against 5 month old APP/PS1 transgenic mouse model assessed as decrease in anxiety level at 2 to 10 mg/kg, po administered 4 times per week for 4 weeks; type: functional, organism-based; conditions: dose 2-10 mg/kg
[5] = target: ALK tyrosine kinase receptor (Mus musculus) (UniProt P97793); assay: Inhibition of ALK activation in mouse BV-2 cells by Western blotting analysis; type: cell-based; conditions: dose 4-100 nM
ALK tyrosine kinase receptor (Mus musculus), sequence (P97793 whole entry): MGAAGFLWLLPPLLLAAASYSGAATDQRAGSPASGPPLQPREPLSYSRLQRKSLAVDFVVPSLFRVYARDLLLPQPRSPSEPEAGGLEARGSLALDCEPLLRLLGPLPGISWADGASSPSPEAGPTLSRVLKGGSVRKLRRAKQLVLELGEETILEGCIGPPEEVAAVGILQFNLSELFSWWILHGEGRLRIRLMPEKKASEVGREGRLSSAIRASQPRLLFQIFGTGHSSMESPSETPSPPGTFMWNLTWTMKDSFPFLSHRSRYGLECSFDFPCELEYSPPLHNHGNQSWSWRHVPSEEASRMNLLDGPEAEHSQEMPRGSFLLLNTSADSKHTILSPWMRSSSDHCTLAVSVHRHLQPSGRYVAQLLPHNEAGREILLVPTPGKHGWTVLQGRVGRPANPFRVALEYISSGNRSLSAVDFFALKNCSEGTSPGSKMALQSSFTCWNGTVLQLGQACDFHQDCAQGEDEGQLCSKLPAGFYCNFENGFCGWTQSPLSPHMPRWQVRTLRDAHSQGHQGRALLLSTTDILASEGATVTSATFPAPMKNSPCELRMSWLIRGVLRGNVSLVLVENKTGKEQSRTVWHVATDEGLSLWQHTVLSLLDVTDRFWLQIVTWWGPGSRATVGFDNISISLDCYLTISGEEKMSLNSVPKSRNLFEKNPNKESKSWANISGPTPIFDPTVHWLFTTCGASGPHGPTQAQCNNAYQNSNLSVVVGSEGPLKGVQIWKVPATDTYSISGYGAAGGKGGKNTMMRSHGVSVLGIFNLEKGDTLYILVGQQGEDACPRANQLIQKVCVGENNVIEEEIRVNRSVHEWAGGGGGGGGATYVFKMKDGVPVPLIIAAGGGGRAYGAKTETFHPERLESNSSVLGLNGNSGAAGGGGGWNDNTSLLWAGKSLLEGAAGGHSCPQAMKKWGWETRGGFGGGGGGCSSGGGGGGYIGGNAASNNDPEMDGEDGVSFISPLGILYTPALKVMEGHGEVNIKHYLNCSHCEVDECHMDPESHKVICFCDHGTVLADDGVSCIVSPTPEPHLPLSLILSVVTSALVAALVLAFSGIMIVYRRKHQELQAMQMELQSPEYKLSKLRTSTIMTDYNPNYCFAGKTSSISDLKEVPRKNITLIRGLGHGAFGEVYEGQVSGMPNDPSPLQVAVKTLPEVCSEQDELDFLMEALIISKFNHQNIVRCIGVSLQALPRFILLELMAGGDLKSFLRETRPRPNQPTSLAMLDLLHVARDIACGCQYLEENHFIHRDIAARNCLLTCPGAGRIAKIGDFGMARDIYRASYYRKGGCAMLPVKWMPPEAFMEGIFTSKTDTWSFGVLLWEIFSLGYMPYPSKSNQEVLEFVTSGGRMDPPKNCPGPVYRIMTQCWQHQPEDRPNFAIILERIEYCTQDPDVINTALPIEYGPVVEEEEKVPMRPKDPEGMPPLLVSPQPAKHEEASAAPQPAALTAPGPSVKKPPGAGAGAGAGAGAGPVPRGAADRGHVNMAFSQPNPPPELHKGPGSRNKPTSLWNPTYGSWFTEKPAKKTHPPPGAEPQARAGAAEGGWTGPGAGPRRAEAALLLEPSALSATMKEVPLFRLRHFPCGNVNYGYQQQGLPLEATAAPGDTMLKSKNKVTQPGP

[6] = target: Cytochrome P450 1A2 (Homo sapiens, UniProt P05177); assay: Inhibition of CYP1A2 (unknown origin) using phenacetin as substrate incubated for 10 mins in presence of NADPH by LC-MS/MS analysis; type: ADME
Cytochrome P450 1A2, sequence (P05177 whole entry): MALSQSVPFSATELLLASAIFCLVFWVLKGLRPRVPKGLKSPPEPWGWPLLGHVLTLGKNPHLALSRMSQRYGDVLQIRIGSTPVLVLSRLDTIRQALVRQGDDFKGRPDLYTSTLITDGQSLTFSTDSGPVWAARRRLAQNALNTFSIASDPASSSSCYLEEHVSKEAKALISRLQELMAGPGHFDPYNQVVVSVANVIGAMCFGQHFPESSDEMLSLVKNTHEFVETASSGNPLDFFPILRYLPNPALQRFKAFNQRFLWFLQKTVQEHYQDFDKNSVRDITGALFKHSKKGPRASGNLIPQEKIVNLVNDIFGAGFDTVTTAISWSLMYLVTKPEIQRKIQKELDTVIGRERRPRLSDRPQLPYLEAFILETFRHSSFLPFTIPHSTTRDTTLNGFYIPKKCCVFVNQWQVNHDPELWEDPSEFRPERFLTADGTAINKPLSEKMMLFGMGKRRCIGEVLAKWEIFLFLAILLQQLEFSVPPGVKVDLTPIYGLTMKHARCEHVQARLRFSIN

[7] = system: BV-2; assay: Inhibition of MLKL activation in mouse BV-2 cells by Western blotting analysis; type: cell-based; conditions: dose 4-100 nM
[8] = system: Microglia; assay: Anti-necroptosis activity in LPS/zVAD stimulated mouse primary microglia overexpressed with RIPK1 assessed as reversal of translucent cytoplasm by TEM analysis; type: functional, cell-based
[9] = system: Mus musculus; assay: Anti-alzheimer activity against 5 month old APP/PS1 transgenic mouse model assessed as decrease in restlessness at 2 to 10 mg/kg, po administered 4 times per week for 4 weeks; type: functional, organism-based; conditions: dose 2-10 mg/kg
[10] = system: Microglia; assay: Anti-necroptosis activity in LPS/zVAD stimulated mouse primary microglia overexpressed with MAP4K4 assessed as reversal of translucent cytoplasm by TEM analysis; type: functional, cell-based
[11] = system: Microglia; assay: Anti-necroptosis activity in LPS/zVAD stimulated mouse primary microglia overexpressed with RIPK1 assessed as reversal of mitochondrial swelling by TEM analysis; type: functional, cell-based
[12] = system: Microglia; assay: Anti-necroptosis activity in LPS/zVAD stimulated mouse primary microglia assessed as reversal of translucent cytoplasm by TEM analysis; type: functional, cell-based
[13] = system: Mus musculus; assay: Anti-alzheimer activity against 8 month old 3xTg mouse model assessed as improved cognitive ability at 2 mg/kg, po administered 4 times per week for 4 weeks; type: functional, organism-based
[14] = system: Mus musculus; assay: Anti-alzheimer activity against 8 month old 3xTg mouse model assessed as increase in searching frequency towards annulus at 10 mg/kg, po administered 4 times per week for 4 weeks; type: functional, organism-based
[15] = system: Mus musculus; assay: Anti-alzheimer activity against 5 month old APP/PS1 transgenic mouse model assessed as […] at 2 mg/kg, po administered 4 times per week for 4 weeks; type: functional, organism-based
[16] = system: Mus musculus; assay: Anti-alzheimer activity against 8 month old 3xTg mouse model assessed as reduction in Tau aggregation at 2 to 10 mg/kg, po; type: functional, organism-based; conditions: dose 2-10 mg/kg
[17] = Cmax in C57BL/6 mouse plasma at 10 mg/kg, po measured upto 24 hrs by LC-MS/MS analysis; type: ADME, organism-based
[18] = target: Cytochrome P450 2B6 (Homo sapiens, UniProt P20813); assay: Inhibition of CYP2B6 (unknown origin) incubated for 10 mins in presence of NADPH by LC-MS/MS analysis; type: ADME
Cytochrome P450 2B6, sequence (P20813 whole entry): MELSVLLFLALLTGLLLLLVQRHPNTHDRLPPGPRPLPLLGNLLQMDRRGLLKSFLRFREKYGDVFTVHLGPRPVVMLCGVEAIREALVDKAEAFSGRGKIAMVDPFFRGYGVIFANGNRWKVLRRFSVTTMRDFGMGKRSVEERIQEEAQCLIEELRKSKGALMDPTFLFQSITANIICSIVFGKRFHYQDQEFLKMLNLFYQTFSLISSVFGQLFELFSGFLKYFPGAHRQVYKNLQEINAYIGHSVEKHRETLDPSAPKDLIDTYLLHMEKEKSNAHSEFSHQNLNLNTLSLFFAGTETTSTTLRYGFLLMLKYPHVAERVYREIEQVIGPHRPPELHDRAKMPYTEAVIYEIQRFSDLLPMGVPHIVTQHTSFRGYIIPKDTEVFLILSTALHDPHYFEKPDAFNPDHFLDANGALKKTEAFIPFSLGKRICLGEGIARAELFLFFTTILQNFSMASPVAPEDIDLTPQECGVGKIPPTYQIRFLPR

[19] = system: Microglia; assay: Anti-necroptosis activity in LPS/zVAD stimulated mouse primary microglia overexpressed with MAP4K4 assessed as reversal of severe membrane disruption by TEM analysis; type: functional, cell-based
[20] = Half-life in C57BL/6 mouse plasma at 10 mg/kg, po measured upto 24 hrs by LC-MS/MS analysis; type: ADME, organism-based
[21] = system: Mus musculus; assay: Anti-alzheimer activity against 8 month old 3xTg mouse model assessed as reduction in p-Tau181 content at 2 to 10 mg/kg, po; type: functional, organism-based; conditions: dose 2-10 mg/kg
[22] = system: BV-2; assay: Cytotoxicity against mouse BV-2 cells at 10 uM; type: toxicity, cell-based; conditions: bv-2, 10 µM
[23] = Unbound plasma protein binding in mouse incubated for 24 hrs by HPLC based equilibrium dialysis method; type: ADME, cell-free
[24] = system: BV-2; assay: Anti-inflammatory activity against LPS/zVAD treated mouse BV-2 cells assessed as decrease in TNFalpha release at 100 nM by ELISA; type: functional, cell-based
[25] = target: Cytochrome P450 3A4 (Homo sapiens, UniProt P08684); assay: Inhibition of CYP3A4 (unknown origin) using midazolam as substrate incubated for 10 mins in presence of NADPH by LC-MS/MS analysis; type: ADME
Cytochrome P450 3A4, sequence (P08684 whole entry): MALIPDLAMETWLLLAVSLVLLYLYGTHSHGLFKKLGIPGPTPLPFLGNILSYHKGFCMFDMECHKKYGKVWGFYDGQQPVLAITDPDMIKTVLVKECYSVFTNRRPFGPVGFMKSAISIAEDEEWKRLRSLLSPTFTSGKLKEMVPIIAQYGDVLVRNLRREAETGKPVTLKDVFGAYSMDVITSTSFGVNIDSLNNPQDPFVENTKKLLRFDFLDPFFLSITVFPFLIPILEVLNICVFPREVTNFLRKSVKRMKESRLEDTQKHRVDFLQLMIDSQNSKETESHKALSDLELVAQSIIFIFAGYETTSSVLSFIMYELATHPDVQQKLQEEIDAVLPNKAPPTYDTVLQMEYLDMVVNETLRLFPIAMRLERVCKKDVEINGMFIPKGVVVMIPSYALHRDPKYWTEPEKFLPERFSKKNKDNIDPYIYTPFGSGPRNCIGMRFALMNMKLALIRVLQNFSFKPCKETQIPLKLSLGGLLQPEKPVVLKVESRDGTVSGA

[26] = Half-life in C57BL/6 mouse brain at 10 mg/kg, po measured upto 24 hrs by LC-MS/MS analysis; type: ADME, organism-based
[27] = system: Mus musculus; assay: Anti-alzheimer activity against 5 month old APP/PS1 transgenic mouse model assessed as improved spatial preference towards annulus at 10 mg/kg, po administered 4 times per week for 4 weeks; type: functional, organism-based
[28] = Metabolic stability in human liver microsomes assessed as half-life at 1 uM measured upto 60 mins in presence of NADPH and UDPGA by LC-MS/MS analysis; type: ADME, Microsome
[29] = AUC(0 to t) in C57BL/6 mouse brain at 10 mg/kg, po measured upto 24 hrs by LC-MS/MS analysis; type: ADME, organism-based
[30] = target: T1, Receptor-interacting serine/threonine-protein kinase 1 (Homo sapiens) (UniProt Q13546); assay: Inhibition of RIPK1 (unknown origin) at 1 uM
T1 sequence (whole entry): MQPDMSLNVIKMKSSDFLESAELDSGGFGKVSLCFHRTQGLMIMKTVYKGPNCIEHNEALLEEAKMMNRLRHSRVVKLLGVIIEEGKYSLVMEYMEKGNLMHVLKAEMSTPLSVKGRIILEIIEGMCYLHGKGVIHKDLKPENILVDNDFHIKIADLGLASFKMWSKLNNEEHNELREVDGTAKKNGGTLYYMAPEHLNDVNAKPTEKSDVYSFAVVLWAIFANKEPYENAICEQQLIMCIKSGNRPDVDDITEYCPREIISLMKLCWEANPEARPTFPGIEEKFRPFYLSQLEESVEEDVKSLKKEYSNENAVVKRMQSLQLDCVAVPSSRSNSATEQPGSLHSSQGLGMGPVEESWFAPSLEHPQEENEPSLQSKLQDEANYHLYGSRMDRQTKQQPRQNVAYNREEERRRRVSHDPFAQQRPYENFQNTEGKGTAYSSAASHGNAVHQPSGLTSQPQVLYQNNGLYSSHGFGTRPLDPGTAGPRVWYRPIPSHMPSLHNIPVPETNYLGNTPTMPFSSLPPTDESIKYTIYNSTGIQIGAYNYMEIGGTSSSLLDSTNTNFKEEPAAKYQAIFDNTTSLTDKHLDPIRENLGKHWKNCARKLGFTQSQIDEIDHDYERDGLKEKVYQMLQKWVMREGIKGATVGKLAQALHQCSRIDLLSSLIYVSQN

[31] = target: ALK tyrosine kinase receptor (Homo sapiens, UniProt Q9UM73, E1167A); assay: Inhibition of ALK E1167A mutant (unknown origin) expressed in Escherichia coli BL21 (DE3)
ALK tyrosine kinase receptor, sequence (Q9UM73 19-1620 E1167A limits assumed): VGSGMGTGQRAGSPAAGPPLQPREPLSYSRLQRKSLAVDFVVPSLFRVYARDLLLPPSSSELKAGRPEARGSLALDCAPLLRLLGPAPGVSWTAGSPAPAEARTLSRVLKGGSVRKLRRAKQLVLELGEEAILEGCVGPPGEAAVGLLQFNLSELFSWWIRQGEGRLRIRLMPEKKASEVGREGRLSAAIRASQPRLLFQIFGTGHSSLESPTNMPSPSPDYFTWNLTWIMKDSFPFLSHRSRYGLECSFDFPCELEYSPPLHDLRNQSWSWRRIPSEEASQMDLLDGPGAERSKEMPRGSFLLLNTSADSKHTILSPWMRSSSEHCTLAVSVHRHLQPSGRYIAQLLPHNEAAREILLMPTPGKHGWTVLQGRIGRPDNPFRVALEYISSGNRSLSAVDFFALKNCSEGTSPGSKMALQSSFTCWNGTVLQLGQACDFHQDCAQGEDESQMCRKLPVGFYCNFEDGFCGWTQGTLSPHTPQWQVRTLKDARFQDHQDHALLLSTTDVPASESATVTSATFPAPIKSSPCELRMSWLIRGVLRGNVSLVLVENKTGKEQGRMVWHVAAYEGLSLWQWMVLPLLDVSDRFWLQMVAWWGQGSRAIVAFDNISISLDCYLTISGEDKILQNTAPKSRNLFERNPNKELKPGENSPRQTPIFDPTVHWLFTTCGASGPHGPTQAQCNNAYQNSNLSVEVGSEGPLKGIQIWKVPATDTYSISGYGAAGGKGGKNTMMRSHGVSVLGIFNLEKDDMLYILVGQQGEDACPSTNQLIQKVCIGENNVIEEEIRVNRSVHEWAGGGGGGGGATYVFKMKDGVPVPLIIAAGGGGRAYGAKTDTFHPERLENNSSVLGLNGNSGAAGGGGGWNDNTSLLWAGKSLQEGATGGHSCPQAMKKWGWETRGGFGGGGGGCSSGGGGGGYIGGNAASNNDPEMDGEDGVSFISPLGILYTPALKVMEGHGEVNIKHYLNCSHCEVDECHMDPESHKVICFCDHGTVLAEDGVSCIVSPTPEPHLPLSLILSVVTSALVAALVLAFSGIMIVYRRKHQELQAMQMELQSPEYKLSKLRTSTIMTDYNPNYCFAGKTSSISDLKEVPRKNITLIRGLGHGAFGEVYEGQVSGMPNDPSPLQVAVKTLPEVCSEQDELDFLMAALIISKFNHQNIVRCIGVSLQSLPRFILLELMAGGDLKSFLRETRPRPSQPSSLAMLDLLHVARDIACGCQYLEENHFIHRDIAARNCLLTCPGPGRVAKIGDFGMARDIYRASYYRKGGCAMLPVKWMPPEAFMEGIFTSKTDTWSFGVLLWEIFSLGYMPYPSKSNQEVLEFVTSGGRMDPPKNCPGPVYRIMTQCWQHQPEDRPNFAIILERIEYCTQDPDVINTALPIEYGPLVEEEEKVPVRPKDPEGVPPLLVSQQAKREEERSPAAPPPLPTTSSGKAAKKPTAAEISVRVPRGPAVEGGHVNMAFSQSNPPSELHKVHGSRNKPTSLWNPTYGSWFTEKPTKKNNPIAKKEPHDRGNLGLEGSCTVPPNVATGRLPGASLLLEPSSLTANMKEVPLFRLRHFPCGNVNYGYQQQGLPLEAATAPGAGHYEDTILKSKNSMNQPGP

[32] = Metabolic stability in human liver microsomes assessed as clearance at 1 uM measured upto 60 mins in presence of NADPH and UDPGA by LC-MS/MS analysis; type: ADME, Microsome; conditions: 1 h

Compound: Cc1cc(F)cc(Nc2ncc(Nc3ccc(SC(F)(F)F)cc3)cc2C(N)=O)c1
- Activity [1]: Active
- Cmax [2]: 290 ng/mL
- Activity [3]: Active
- Activity [4]: Active
- inhibition [5]: Dose-dependent-effect
- IC50 [6]: > 10 µM
- inhibition [7]: Dose-dependent-effect
- Activity [8]: inactive
- Activity [9]: Active
- Activity [10]: inactive
- Activity [11]: inactive
- Activity [12]: Active
- Activity [13]: Active; Activity More Potent Than Nec-1
- Activity [14]: Active
- Activity [15]: Active
- Activity [16]: Active
- Cmax [17]: 1180 ng/mL
- IC50 [18]: 5.2 µM
- Activity [19]: inactive
- half-life [20]: 13.3 h
- Activity [21]: Active
- Activity [22]: Toxic
- Fu [23]: 0.8%
- Activity [24]: Active
- IC50 [25]: > 10 µM
- half-life [26]: 8.46 h
- Activity [27]: Active
- half-life at 1 µM [28]: 3.22 h
- AUC(0-t) at 24 h [29]: 2970 ng·h/mL
- inhibition [30]: Active
- IC50 [31]: 4.43 µM
- CLH [32]: 7 µL/min/mg
